Results taken from patent US12344610B2, “APOL1 inhibitors and methods of use” (Maze Therapeutics, Inc., priority 2022, dated 2025).

Assays:
Type in all cases: cell-based
[1] = test system: Trypanosoma brucei Lister 427 VSG221 with APOL1 G2 recombinant protein; assay: APOL1 G2 trypanosome cell rescue assay (Example B5); settings: Trypanosoma brucei, 20 h, read-out: APOL1 G2 Trypanosome Rescue EC50, Trypanosoma brucei Lister 427 VSG221 with APOL1 G2 recombinant protein, 20 hours, CellTiter-Glo; geometric mean of at least 2 assay runs; † = single assay run
Summary of the method: (§1)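 Luminescent ATP read-out (CellTiter-Glo) of trypanosome viability after 20 h at 37° C. Bloodstream T. brucei Lister 427 VSG221, 250/well in modified HMI-9, were exposed to recombinant mature APOL1 (aa 28-398) from a 2 μg/mL addition, plus compound in 11-point 2-fold series.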

[2] = test system: Trypanosoma brucei Lister 427 VSG221 with APOL1 G1 recombinant protein; assay: APOL1 G1 trypanosome cell rescue assay (Example B5); settings: Trypanosoma brucei, 20 h, read-out: APOL1 G1 Trypanosome Rescue EC50, Trypanosoma brucei Lister 427 VSG221 with APOL1 G1 recombinant protein, 20 hours, CellTiter-Glo; geometric mean of at least 2 assay runs; † = single assay run
Summary of the method: as §1

[3] = test system: HEK293 clonal cell line overexpressing APOL1 G1; assay: APOL1 G1 HEK293 cell rescue assay (Example B3); settings: Homo sapiens, HEK293, HEK293 clonal line overexpressing APOL1 G1; geometric mean of at least 2 runs; † = single run; ¥ = concentration at 50% rescue estimated (no sigmoidal curve)
Summary of the method: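 Rescue of cell death caused by APOL1 G1 overexpression was measured in a clonal HEK293 line. Compounds were tested in duplicate on one plate, and EC50s were geometric means across at least two runs on different days. Some values are estimated 50%-rescue concentrations where curve fitting failed.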

C[C@]1(O)C[C@@H](N2C(=O)CCc3cc(OCCN4CCC5(CC4)C(=O)Nc4ccc(Cl)cc45)cnc32)C1 [Compound 275, 5-chloro-1′-[2-({7-oxo-8-[(cis)-3-hydroxy-3-methylcyclobutyl]-5,6,7,8-tetrahydro-1,8-naphthyridin-3-yl}oxy)ethyl]-1,2-dihydrospiro[indole-3,4′-piperidin]-2-one]
EC50 [1]: 21.4 nM
EC50 [2]: 73.6 nM
EC50 [3]: 62.7 nM

CS(=O)(=O)C1(c2ncc(OCCN3CCC4(CC3)C(=O)Nc3ccc(Cl)cc34)cn2)COC1 [Compound 276, 5-chloro-1′-(2-{[2-(3-methanesulfonyloxetan-3-yl)pyrimidin-5-yl]oxy}ethyl)-1,2-dihydrospiro[indole-3,4′-piperidin]-2-one]
EC50 [1]: 55 nM
EC50 [2]: 185 nM
EC50 [3]: 228 nM

CS(=O)(=O)C1(c2ncc(OCCN3CCC4(CC3)C(=O)Nc3ccc(C#N)cc34)cc2F)CC1 [Compound 283, 1′-(2-{[5-fluoro-6-(1-methanesulfonylcyclopropyl)pyridin-3-yl]oxy}ethyl)-2-oxo-1,2-dihydrospiro[indole-3,4′-piperidine]-5-carbonitrile]
EC50 [1]: 71.1 nM
EC50 [2]: 235 nM
EC50 [3]: 211 nM

CC(O)c1ncc(OCCN2CCC3(CC2)C(=O)Nc2ccc(Cl)cc23)cn1 (stereo not drawn) [Compound 284, 5-chloro-1′-(2-{[2-(1-hydroxyethyl)pyrimidin-5-yl]oxy}ethyl)-1,2-dihydrospiro[indole-3,4′-piperidin]-2-one]
EC50 [1]: 235 nM
EC50 [2]: 943 nM
EC50 [3]: 775 nM

C[C@]1(O)C[C@@H](N2C(=O)OCc3cc(OCCN4CCC5(CC4)C(=O)Nc4ccc(Cl)cc45)cnc32)C1 [Compound 289, 5-chloro-1′-[2-({2-oxo-1-[(cis)-3-hydroxy-3-methylcyclobutyl]-1H,2H,4H-pyrido[2,3-d][1,3]oxazin-6-yl]oxy)ethyl]-1,2-dihydrospiro[indole-3,4′-piperidin]-2-one]
EC50 [1]: 15.7 nM
EC50 [2]: 51.9 nM
EC50 [3]: 50.6 nM

CC1(O)CN(c2ncc(OCCN3CCC4(CC3)C(=O)Nc3ccc(Cl)cc34)cn2)C1 [Compound 300, 5-chloro-1′-(2-{[2-(3-hydroxy-3-methylazetidin-1-yl)pyrimidin-5-yl]oxy}ethyl)-1,2-dihydrospiro[indole-3,4′-piperidin]-2-one]
EC50 [1]: 160 nM
EC50 [2]: 543 nM
EC50 [3]: 183 nM

O=C1Nc2ccc(Cl)cc2C12CCN(CCOc1cnc(N3CC(O)C3)nc1)CC2 [Compound 301, 5-chloro-1′-(2-{[2-(3-hydroxyazetidin-1-yl)pyrimidin-5-yl]oxy}ethyl)-1,2-dihydrospiro[indole-3,4′-piperidin]-2-one]
EC50 [1]: 134 nM
EC50 [2]: 447 nM
EC50 [3]: 190 nM

CS(=O)(=O)C1CN(c2ncc(OCCN3CCC4(CC3)C(=O)Nc3ccc(Cl)cc34)cn2)C1 [Compound 302, 5-chloro-1′-(2-{[2-(3-methanesulfonylazetidin-1-yl)pyrimidin-5-yl]oxy}ethyl)-1,2-dihydrospiro[indole-3,4′-piperidin]-2-one]
EC50 [1]: 142 nM
EC50 [2]: 498 nM
EC50 [3]: 236 nM

CC(C)(O)c1ncc(OCCN2CCC3(CC2)C(=O)Nc2ccc(Cl)cc23)cn1 [Compound 305, 5-chloro-1′-(2-{[2-(2-hydroxypropan-2-yl)pyrimidin-5-yl]oxy}ethyl)-1,2-dihydrospiro[indole-3,4′-piperidin]-2-one]
EC50 [1]: 80.4 nM
EC50 [2]: 265 nM
EC50 [3]: 172 nM

CC1(O)CN(c2nccc3cc(OCCN4CCC5(CC4)C(=O)Nc4ccc(Cl)cc45)cnc23)C1 [Compound 306, 5-chloro-1′-(2-{[8-(3-hydroxy-3-methylazetidin-1-yl)-1,7-naphthyridin-3-yl]oxy}ethyl)-1,2-dihydrospiro[indole-3,4′-piperidin]-2-one]
EC50 [1]: 15 nM
EC50 [2]: 50.8 nM
EC50 [3]: 245 nM

O=C1Nc2ccc(Cl)cc2C12CCN(CCOc1cnc3c(N4CC(O)C4)nccc3c1)CC2 [Compound 314, 5-chloro-1′-(2-{[8-(3-hydroxyazetidin-1-yl)-1,7-naphthyridin-3-yl]oxy}ethyl)-1,2-dihydrospiro[indole-3,4′-piperidin]-2-one]
EC50 [1]: 11.5 nM
EC50 [2]: 34.9 nM
EC50 [3]: 53.2 nM
